# In US10201523B2, “Use of wilforlide A for overcoming chemotherapy resistance” (WESTERN UNIVERSITY OF HEALTH SCIENCES, priority 2013, dated 2019):
# Several values for one entry are separate records, joined by “and”; a condition that tells them apart may be missing. Equal entries are not always repeated.
# System: PC3
# Assay: SRB cell viability assay, docetaxel with/without wilforlide A pretreatment
# Details: PC3
# [1] = no wilforlide A pre-Tx (control of Table 4), docetaxel 0.001 nM 72 h
# [2] = no wilforlide A pre-Tx (control of Table 4), docetaxel 0.1 nM 72 h
# [3] = no wilforlide A pre-Tx (control of Table 4), docetaxel 0.333 nM 72 h
# [4] = no wilforlide A pre-Tx (control of Table 4), docetaxel 1 nM 72 h
# [5] = no wilforlide A pre-Tx (control of Table 4), docetaxel 3.33 nM 72 h
# [6] = no wilforlide A pre-Tx (control of Table 4), docetaxel 10 nM 72 h
# [7] = no wilforlide A pre-Tx (control of Table 4), docetaxel 33.3 nM 72 h
# [8] = no wilforlide A pre-Tx (control of Table 4), docetaxel 100 nM 72 h
# [9] = no wilforlide A pre-Tx (control of Table 6), docetaxel 0.001 nM 72 h
# [10] = no wilforlide A pre-Tx (control of Table 6), docetaxel 0.1 nM 72 h
# [11] = no wilforlide A pre-Tx (control of Table 6), docetaxel 0.333 nM 72 h
# [12] = no wilforlide A pre-Tx (control of Table 6), docetaxel 1 nM 72 h
# [13] = no wilforlide A pre-Tx (control of Table 6), docetaxel 3.33 nM 72 h
# [14] = no wilforlide A pre-Tx (control of Table 6), docetaxel 10 nM 72 h
# [15] = no wilforlide A pre-Tx (control of Table 6), docetaxel 33.3 nM 72 h
# [16] = no wilforlide A pre-Tx (control of Table 6), docetaxel 100 nM 72 h
# [17] = no wilforlide A pre-Tx (control of Table 8), docetaxel 0.001 nM 72 h
# [18] = no wilforlide A pre-Tx (control of Table 8), docetaxel 0.1 nM 72 h
# [19] = no wilforlide A pre-Tx (control of Table 8), docetaxel 0.333 nM 72 h
# [20] = no wilforlide A pre-Tx (control of Table 8), docetaxel 1 nM 72 h
# [21] = no wilforlide A pre-Tx (control of Table 8), docetaxel 3.33 nM 72 h
# [22] = no wilforlide A pre-Tx (control of Table 8), docetaxel 10 nM 72 h
# [23] = no wilforlide A pre-Tx (control of Table 8), docetaxel 33.3 nM 72 h
# [24] = no wilforlide A pre-Tx (control of Table 8), docetaxel 100 nM 72 h
# Procedure: Following the 72 hour wilforlide A treatment, a sulforhodamine B (SRB) assay was used to quantitate living cells. To perform the assay, the wilforlide A media was aspirated from each well, and replaced with a 10% solution of cold trichloroacetic acid (TCA) (Cat #: T6399, purchased from Sigma-Aldrich), and incubated for one hour at 4° C. After the TCA incubation, the TCA solution was aspirated, and the cells were washed five times with tap water. After removing the last wash, the plates were left with lids off at room temperature until the surfaces were dry, which took one to two hours. Then 50 μl of a 0.4% solution of sul-forhodamine B (SRB) sodium salt (Cat #: S9012, purchased from Sigma-Aldrich) was added to each well and the plates were incubated at room temperature for 20 to 30 minutes. Afterwards, the wells were washed five times with a 1% acetic acid solution in 10 mM TRIS base (Cat #: 161-0719, purchased from Bio-Rad Laboratories, Hercules, Calif.). The plates were subsequently left to dry for several hours or overnight. SRB that remained in the dried wells was solubilized by adding 100 μl of SRB solubilization solution (10 mM TRIS base) to each well, and placing the plates either on a gently-moving shaker or letting the plates remain stationary at room temperature until the SRB dissolves, which takes about five to ten minutes. The amount of SRB in each well, which correlated directly to the number of living cells at fixation, was determined spectrophotometrically at an absorbance of 565 nm by a microplate reader.
# In these comparisons, the in vitro IC50 of a tested chemotherapeutic drug (D) in cell culture was compared to the drug's IC50 when drug treatment followed pretreatment of the cells with wilforlide A (Purchased from PI & PI Technology Inc. of Guangzhou, China or the National Institutes for Food and Drug Control in Beijing, China).
# Triplicate wells were assigned to each experimental condition tested, and a 24 hour recovery period for the cells following the seeding of the wells was allowed. During the recovery period, the cells were incubated at 37° C. and 5% CO2.
# At the end of the two hour pre-treatment period, 50 μl aliquots of the desired chemotherapeutic drug RPMI medium were added according to the amounts provided in Table 2.
# After adding the various doses of chemotherapeutic drugs, as described above, the cells were incubated for an additional 72 hours under the same temperature and atmospheric conditions used for the pre-treatment step.
# The cells were then incubated for 72 hours at 37° C. and 5% CO2. After the 72 hour incubation, sulforhodamine B (SRB) assays were performed as described in Example 1 to quantitate living cells.
smiles,measurement,setting,value
CC(=O)O[C@@]12CO[C@@H]1C[C@H](O)[C@@]1(C)C(=O)[C@H](O)C3=C(C)[C@@H](OC(=O)[C@H](O)[C@@H](NC(=O)OC(C)(C)C)c4ccccc4)C[C@@](O)([C@@H](OC(=O)c4ccccc4)[C@H]21)C3(C)C [docetaxel],% viable,[1],100.0%
same,mean A,[1],1.839
same,A at 565 nm,"no wilforlide A pre-Tx (control of Table 4), docetaxel 0.001 nM 72 h, background = 0.043",1.827 and 1.892 and 1.800
same,% viable,[2],102.0%
same,mean A,[2],1.876
same,A at 565 nm,"no wilforlide A pre-Tx (control of Table 4), docetaxel 0.1 nM 72 h, background = 0.043",1.875 and 1.878
same,% viable,[3],97.7%
same,mean A,[3],1.796
same,A at 565 nm,"no wilforlide A pre-Tx (control of Table 4), docetaxel 0.333 nM 72 h, background = 0.043",1.845 and 1.808 and 1.737
same,% viable,[4],74.7%
same,mean A,[4],1.374
same,A at 565 nm,"no wilforlide A pre-Tx (control of Table 4), docetaxel 1 nM 72 h, background = 0.043",1.452 and 1.366 and 1.306
same,% viable,[5],46.3%
same,mean A,[5],0.851
same,A at 565 nm,"no wilforlide A pre-Tx (control of Table 4), docetaxel 3.33 nM 72 h, background = 0.043",0.862 and 0.832 and 0.860
same,% viable,[6],22.5%
same,mean A,[6],0.415
same,A at 565 nm,"no wilforlide A pre-Tx (control of Table 4), docetaxel 10 nM 72 h, background = 0.043",0.432 and 0.409 and 0.404
same,% viable,[7],16.4%
same,mean A,[7],0.303
same,A at 565 nm,"no wilforlide A pre-Tx (control of Table 4), docetaxel 33.3 nM 72 h, background = 0.043",0.321 and 0.295 and 0.293
same,% viable,[8],15.9%
same,mean A,[8],0.293
same,A at 565 nm,"no wilforlide A pre-Tx (control of Table 4), docetaxel 100 nM 72 h, background = 0.043",0.300 and 0.270 and 0.311
same,% viable,[9],100.0%
same,mean A,[9],1.952
same,A at 565 nm,"no wilforlide A pre-Tx (control of Table 6), docetaxel 0.001 nM 72 h, background = 0.044",1.888 and 2.010 and 1.957
same,% viable,[10],100.7%
same,mean A,[10],1.966
same,A at 565 nm,"no wilforlide A pre-Tx (control of Table 6), docetaxel 0.1 nM 72 h, background = 0.044",1.980 and 1.925 and 1.992
same,% viable,[11],93.1%
same,mean A,[11],1.817
same,A at 565 nm,"no wilforlide A pre-Tx (control of Table 6), docetaxel 0.333 nM 72 h, background = 0.044",1.735 and 1.845 and 1.871
same,% viable,[12],70.9%
same,mean A,[12],1.384
same,A at 565 nm,"no wilforlide A pre-Tx (control of Table 6), docetaxel 1 nM 72 h, background = 0.044",1.398 and 1.314 and 1.441
same,% viable,[13],46.6%
same,mean A,[13],0.909
same,A at 565 nm,"no wilforlide A pre-Tx (control of Table 6), docetaxel 3.33 nM 72 h, background = 0.044",0.895 and 0.942 and 0.889
same,% viable,[14],22.9%
same,mean A,[14],0.447
same,A at 565 nm,"no wilforlide A pre-Tx (control of Table 6), docetaxel 10 nM 72 h, background = 0.044",0.464 and 0.427 and 0.450
same,% viable,[15],18.1%
same,mean A,[15],0.354
same,A at 565 nm,"no wilforlide A pre-Tx (control of Table 6), docetaxel 33.3 nM 72 h, background = 0.044",0.337 and 0.357 and 0.368
same,% viable,[16],18.4%
same,mean A,[16],0.360
same,A at 565 nm,"no wilforlide A pre-Tx (control of Table 6), docetaxel 100 nM 72 h, background = 0.044",0.349 and 0.366 and 0.365
same,% viable,[17],100.0%
same,mean A,[17],1.990
same,% viable,[18],101.2%
same,mean A,[18],2.014
same,% viable,[19],95.1%
same,mean A,[19],1.892
same,% viable,[20],71.2%
same,mean A,[20],1.417
same,% viable,[21],45.8%
same,mean A,[21],0.911
same,% viable,[22],23.0%
same,mean A,[22],0.458
same,% viable,[23],17.8%
same,mean A,[23],0.354
same,% viable,[24],17.4%
same,mean A,[24],0.346
